Test results taken from PubChem BioAssay (NCI).
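Five compound concentrations were applied to cells in 96-well plates for 48 hours; endpoints were derived by simple linear interpolation of the resulting dose-response curve. Abbreviation: GI50, concentration required for 50% inhibition of growth. TGI denotes the concentration required for complete inhibition of growth.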

Assays:
Assay in all cases: NCI-60 cell line screen, 48 h
NCI-H226 lung = tested on: NCI-H226 lung
NCI-H23 lung = tested on: NCI-H23 lung
786-0 renal = tested on: 786-0 renal
DU-145 prostate = tested on: DU-145 prostate
NCI-H522 lung = tested on: NCI-H522 lung
MDA-MB-468 breast = tested on: MDA-MB-468 breast
OVCAR-4 ovarian = tested on: OVCAR-4 ovarian
UACC-62 melanoma = tested on: UACC-62 melanoma
HOP-62 NSCLC = tested on: HOP-62 NSCLC
OVCAR-3 ovarian = tested on: OVCAR-3 ovarian
MDA-MB-231 breast = tested on: MDA-MB-231 breast
EKVX NSCLC = tested on: EKVX NSCLC
SNB-19 CNS = tested on: SNB-19 CNS
UO-31 renal = tested on: UO-31 renal
SK-OV-3 ovarian = tested on: SK-OV-3 ovarian
CCRF-CEM leukemia = tested on: CCRF-CEM leukemia
HS 578T breast = tested on: HS 578T breast
MCF7 breast = tested on: MCF7 breast
SF-295 CNS = tested on: SF-295 CNS
BT-549 breast = tested on: BT-549 breast
LOX IMVI melanoma = tested on: LOX IMVI melanoma
TK-10 renal = tested on: TK-10 renal
SF-539 CNS = tested on: SF-539 CNS
SN12C renal = tested on: SN12C renal
RPMI-8226 leukemia = tested on: RPMI-8226 leukemia
SNB-75 CNS = tested on: SNB-75 CNS
IGROV1 ovarian = tested on: IGROV1 ovarian
M14 melanoma = tested on: M14 melanoma
NCI/ADR-RES ovarian = tested on: NCI/ADR-RES ovarian
K-562 leukemia = tested on: K-562 leukemia
SK-MEL-2 melanoma = tested on: SK-MEL-2 melanoma
CAKI-1 renal = tested on: CAKI-1 renal
PC-3 prostate = tested on: PC-3 prostate
HT29 colon = tested on: HT29 colon
MOLT-4 leukemia = tested on: MOLT-4 leukemia
MALME-3M melanoma = tested on: MALME-3M melanoma
U251 CNS = tested on: U251 CNS
A498 renal = tested on: A498 renal
A549 NSCLC = tested on: A549 NSCLC
HOP-92 NSCLC = tested on: HOP-92 NSCLC
KM12 colon = tested on: KM12 colon
HCT-116 colon = tested on: HCT-116 colon
RXF 393 renal = tested on: RXF 393 renal
HCT-15 colon = tested on: HCT-15 colon
SR leukemia = tested on: SR leukemia
MDA-MB-435 = tested on: MDA-MB-435
ACHN renal = tested on: ACHN renal
SF-268 CNS = tested on: SF-268 CNS
SK-MEL-28 melanoma = tested on: SK-MEL-28 melanoma
UACC-257 melanoma = tested on: UACC-257 melanoma
SK-MEL-5 melanoma = tested on: SK-MEL-5 melanoma
OVCAR-5 ovarian = tested on: OVCAR-5 ovarian
NCI-H460 lung = tested on: NCI-H460 lung
OVCAR-8 ovarian = tested on: OVCAR-8 ovarian
COLO 205 colon = tested on: COLO 205 colon
HCC-2998 colon = tested on: HCC-2998 colon
SW-620 colon = tested on: SW-620 colon
HL-60(TB) leukemia = tested on: HL-60(TB) leukemia

## O=C(CNc1nc(-c2ccccc2)cs1)Nc1ccc(Br)cc1
NCI-H226 lung
  GI50: 1.12 µM
  TGI: 3.51 µM
NCI-H23 lung
  GI50: 0.646 µM
  TGI: 1.89 µM
786-0 renal
  GI50: 0.798 µM
  TGI: 2.1 µM
DU-145 prostate
  GI50: 1.6 µM
  TGI: 3.05 µM
NCI-H522 lung
  GI50: 0.168 µM
  TGI: 0.339 µM
MDA-MB-468 breast
  GI50: 0.532 µM
  TGI: 1.18 µM
OVCAR-4 ovarian
  GI50: 1.33 µM
  TGI: 2.98 µM
UACC-62 melanoma
  GI50: 0.903 µM
  TGI: 2.32 µM
HOP-62 NSCLC
  GI50: 1.6 µM
  TGI: 3.17 µM
OVCAR-3 ovarian
  GI50: 0.747 µM
  TGI: 1.93 µM
MDA-MB-231 breast
  GI50: 0.655 µM
  TGI: 1.97 µM
EKVX NSCLC
  GI50: 1.42 µM
  TGI: 3.03 µM
SNB-19 CNS
  GI50: 1.48 µM
  TGI: 3.08 µM
UO-31 renal
  GI50: 1.05 µM
  TGI: 2.33 µM
SK-OV-3 ovarian
  GI50: 1.94 µM
  TGI: 4.75 µM
CCRF-CEM leukemia
  GI50: 0.245 µM
  TGI: > 100 µM
HS 578T breast
  GI50: 2.14 µM
  TGI: 22.3 µM
MCF7 breast
  GI50: 0.625 µM
  TGI: 1.94 µM
SF-295 CNS
  GI50: 1.48 µM
  TGI: 4.1 µM
BT-549 breast
  GI50: 0.498 µM
  TGI: 1.68 µM
LOX IMVI melanoma
  GI50: 0.296 µM
  TGI: 1.29 µM
TK-10 renal
  GI50: 1.84 µM
  TGI: 3.27 µM
SF-539 CNS
  GI50: 0.779 µM
  TGI: 2.02 µM
SN12C renal
  GI50: 0.649 µM
  TGI: 1.99 µM
RPMI-8226 leukemia
  GI50: 0.396 µM
  TGI: 1.89 µM
SNB-75 CNS
  GI50: 1.13 µM
  TGI: 5.94 µM
IGROV1 ovarian
  GI50: 0.876 µM
  TGI: 2.43 µM
M14 melanoma
  GI50: 0.875 µM
  TGI: 2.49 µM
NCI/ADR-RES ovarian
  GI50: 0.557 µM
  TGI: 3.68 µM
K-562 leukemia
  GI50: 0.309 µM
  TGI: > 100 µM
SK-MEL-2 melanoma
  GI50: 1.32 µM
  TGI: 2.7 µM
CAKI-1 renal
  GI50: 0.917 µM
  TGI: 2.3 µM
PC-3 prostate
  GI50: 1.24 µM
  TGI: 3.62 µM
HT29 colon
  GI50: 0.752 µM
  TGI: 2.16 µM
MOLT-4 leukemia
  GI50: 0.424 µM
MALME-3M melanoma
  GI50: 0.739 µM
  TGI: 2.09 µM
U251 CNS
  GI50: 0.525 µM
  TGI: 1.34 µM
A498 renal
  GI50: 3.65 µM
  TGI: 7.99 µM
A549 NSCLC
  GI50: 1.66 µM
  TGI: 3.56 µM
HOP-92 NSCLC
  GI50: 1.4 µM
  TGI: 3.1 µM
KM12 colon
  GI50: 1.79 µM
  TGI: 5.35 µM
HCT-116 colon
  GI50: 0.507 µM
  TGI: 1.66 µM
RXF 393 renal
  GI50: 1.15 µM
  TGI: 2.54 µM
HCT-15 colon
  GI50: 0.469 µM
  TGI: 1.16 µM
SR leukemia
  GI50: 0.47 µM
  TGI: > 100 µM
MDA-MB-435
  GI50: 1.02 µM
  TGI: 2.79 µM
ACHN renal
  GI50: 0.844 µM
  TGI: 2.16 µM
SF-268 CNS
  GI50: 1.72 µM
  TGI: 7.07 µM
SK-MEL-28 melanoma
  GI50: 1.58 µM
  TGI: 2.97 µM
UACC-257 melanoma
  GI50: 1.41 µM
  TGI: 3.14 µM
SK-MEL-5 melanoma
  GI50: 0.707 µM
  TGI: 1.87 µM
OVCAR-5 ovarian
  GI50: 1.61 µM
  TGI: 3.02 µM
NCI-H460 lung
  GI50: 1.43 µM
  TGI: 3.42 µM
OVCAR-8 ovarian
  GI50: 1.66 µM
  TGI: 6.07 µM
COLO 205 colon
  GI50: 1.3 µM
  TGI: 2.84 µM
HCC-2998 colon
  GI50: 1.45 µM
  TGI: 2.77 µM
SW-620 colon
  GI50: 0.759 µM
  TGI: 2.3 µM
HL-60(TB) leukemia
  GI50: 1.32 µM
  TGI: 49.2 µM
